In patent publication US10913734B2, “Substituted aminothiazoles” (BARUCH S. BLUMBERG INSTITUTE, priority 2016, dated 2021):

Key:
[1] = MTT cell viability / cytotoxicity assay (CC50), 72 hours; format: cell-based; conditions: human, 72 hours incubation, concentration that reduces signal of viable cells by 50%, table title names Huh-7, THLE2 and PH5CH cells, cell line not given
Excerpt: (§1) Huh-7 cells and derived from hepatocellular carcinoma cells, and were donated by Dr. Xuanyong Lu, (Drexel University College of Medicine, Doylestown, Pa.). THLE-2 were purchased from American Type Culture Collection (Manassas, Va.). PH5CH were donated by Dr. Masayuki Noguchi (University of Tsukuba, Ibaraki, Japan). THLE-2 and PH5CH have been immortalized through stable transfection of the SV40 large T antigen in normal hepatocytes, and are thus cell lines that are representative of normal hepatocytes rather than HCC cells. […] All cell lines were cultured and maintained in 5% CO2 at 37° C. Huh-7 were maintained in the culture media DMEM/F12 (Dulbecco's Modified Eagle Medium) with 10% Fetal bovine serum (FBS), 100 µg/mL penicillin, 100 units/mL streptomycin, and 50 µg/mL normocin. THLE-2 and PH5CH were maintained in the culture media Brochial Epithelial Growth Media (BEGM) with 10% FBS, 100 µg/mL penicillin, 100 units/mL streptomycin, with the following additives form the prepackaged kit: Bovine pituitary extract (BPE), insulin, hydrocortisone, retinoic acid, transferrin, triiodothyronine, supplemented with 5 ng/ml human epidermal growth factor and 70 ng/ml phosphoethanolamine (Lonza Walkersville Inc., Walkersville, Md.).
(§2) Huh7 cells were plated on 96-well plates at 2.0×10^4 cells per well to permit grow in the presence of compounds of the disclosure. Compounds of the disclosure were prediluted and transferred to cell plates by automated liquid handling. Cells were incubated with compounds of the disclosure for 72 hours, after which culture growth and viability were assessed by addition of 50 µg/mL 3-(4,5-Dimethyl-2-thiazolyl)-2,5-diphenyl-2H-tetrazolium bromide (MTT) incubation for 4 hours at 37° C. Solubilization buffer (0.01M HCl, 10% SDS) was added followed by incubation at 37° C. overnight. Absorbance was measured at 570 nm (reference 630 nm). Compound of the disclosure were tested in Huh7, THLE-2 and PH5CH, over eight-point dilutions in half-log steps, testing 50.0, 16.6, 5.0, 1.66, 0.5, 0.166, 0.05, and 0.016 µM in 0.5% DMSO, with each concentration in duplicate wells. […] Each compound was tested from 2 to 7 times in separate assay trials.

[2] = system: THLE2 and/or PH5CH (normal hepatocyte-derived) cell versus Huh7; test: Selectivity of cytotoxicity: CC50 in normal hepatocyte-derived cells versus liver cancer derived cells (MTT assay); format: cell-based; conditions: ratio of CC50 between Huh7 and THLE2 and/or PH5CH (normal hepatocyte-derived) cell
Excerpt: as §1
as §2, with “nm).” for “nm). Compound of the disclosure were tested in Huh7, THLE-2 and PH5CH, over eight-point dilutions in half-log steps, testing 50.0, 16.6, 5.0, 1.66, 0.5, 0.166, 0.05, and 0.016 µM in 0.5% DMSO, with each concentration in duplicate wells.”
Selectivity of toxicity in HCC-derived cells over normal liver-derived cells is important for the purposes of developing a therapy that specifically targets the cancer with low toxcity for the […]. The Selective Index (SI) is the ratio of CC50 in normal cells (THLE2 or PHSCH) over the CC50 in the liver cancer derived cells; thus, the higher the number, the lower the potential toxicity at an efficacious dose.
Selectivity in table 6 is defined as the ratio of CC50 between Huh7 and THLE2 and/or PH5CH (normal hepatocyte-derived) cell.

Compound	CC50 at 72 h [1]	Selectivity [2]
CC(C)OC(=O)c1sc(N(COP(=O)(OC(C)(C)C)OC(C)(C)C)c2ncccn2)nc1-c1cnccn1 [Entry 28]	< 50 µM	>5.0
CCOC(=O)CCc1sc(Nc2ncccn2)nc1-c1ccccn1 [Entry 9]	< 50 µM	>5.0
O=C(O)CCc1sc(Nc2ncccn2)nc1-c1ccccn1 [Entry 11]	< 50 µM	≤5.0
O=C([O-])CCc1sc(NCc2ncccn2)nc1-c1ccccn1.[Na+] [Entry 14]		≤5.0
CCOC(=O)CCc1sc(NCc2ncccn2)nc1-c1ccccn1 [Entry 10]	≥ 50 µM	≤5.0
CC(C)OC(=O)c1sc(Nc2ncccn2)nc1-c1cnccn1 [Entry 25]	< 50 µM	>5.0
CCOCc1sc(Nc2ncccn2)nc1-c1ccccn1 [Entry 6]	< 50 µM	>5.0
CCOCc1sc(NCc2ncccn2)nc1-c1ccccn1 [Entry 8]	≥ 50 µM	≤5.0
CC(C)OC(=O)c1sc(N(COP(=O)(OC(C)(C)C)OC(C)(C)C)c2ncccn2)nc1-c1ccccn1 [Entry 27]	< 50 µM	>5.0
CCOC(=O)c1sc(Nc2nccc(C)n2)nc1-c1ncccc1C [Entry 4]	≥ 50 µM	≤5.0
c1ccc(-c2csc(NCc3ncccn3)n2)nc1 [Entry 2]	< 50 µM	≤5.0
CCOC(=O)c1sc(Nc2ncccn2)nc1-c1ccncn1 [Entry 23]	< 50 µM	>5.0
CCOC(=O)Cc1sc(Nc2nccc(C)n2)nc1-c1ccccn1 [Entry 18]	< 50 µM	≤5.0
O=C(Nc1ncccn1)Nc1nc(-c2ccccn2)cs1 [Entry 3]	≥ 50 µM	≤5.0
CCOC(=O)c1sc(NCc2ncccn2)nc1-c1ncccc1C [Entry 5]	≥ 50 µM	≤5.0
CC(C)OC(=O)c1sc(Nc2ncccn2)nc1-c1ccccn1 [Entry 21]	< 50 µM	>5.0
O=C([O-])CCc1sc(Nc2ncccn2)nc1-c1ccccn1.[Na+] [Entry 12]		≤5.0
CC(C)OC(=O)OCN(c1ncccn1)c1nc(-c2cnccn2)c(C(=O)OC(C)C)s1 [Entry 26]	< 50 µM	>5.0
CC(C)OC(=O)c1sc(Nc2ncccn2)nc1-c1ncccn1 [Entry 19]	< 50 µM	>5.0
CC(C)OC(=O)C1=C(c2ccncn2)NC(Nc2ncccn2)S1 (stereo not drawn) [Entry 22]	< 50 µM	>5.0
COCCOCN(c1ncccn1)c1nc(-c2cnccn2)c(C(=O)OC(C)C)s1 [Entry 29]	≥ 50 µM	≤5.0
CCOC(=O)Cc1sc(Nc2ncccn2)nc1-c1ccccn1 [Entry 15]	< 50 µM	>5.0
CCOC(=O)c1sc(NCc2ncccn2)nc1-c1ccccn1 [Entry 17]	≥ 50 µM	≤5.0
CCOC(=O)c1sc(Nc2ncccn2)nc1-c1cc(C(F)(F)F)ccn1 [Entry 24]	< 50 µM	>5.0
O=C(O)CCc1sc(NCc2ncccn2)nc1-c1ccccn1 [Entry 13]	≥ 50 µM	≤5.0
CCOCc1sc(Nc2nccc(C)n2)nc1-c1ccccn1 [Entry 7]	< 50 µM	≤5.0
CCOC(=O)Cc1sc(NCc2ncccn2)nc1-c1ccccn1 [Entry 16]	< 50 µM	≤5.0
CCOC(=O)c1sc(Nc2ncccn2)nc1-c1cnccn1 [Entry 20]	< 50 µM	>5.0
